Source: ChEMBL document CHEMBL5131560, “Discovery of Heteroaryl Urea Isosteres for Formyl Peptide Receptor 2 Agonists” (ACS Med Chem Lett, 2022)

How the values were obtained:
[1] = biological target: T1, N-formyl peptide receptor 2 (Homo sapiens, UniProt P25090); assay: Agonist activity at human FPR2 overexpressing CHO cells assessed as reduction in intracellular cAMP level incubated for 30 mins by HTRF assay; format: functional, cell-based
T1 sequence (P25090 whole entry): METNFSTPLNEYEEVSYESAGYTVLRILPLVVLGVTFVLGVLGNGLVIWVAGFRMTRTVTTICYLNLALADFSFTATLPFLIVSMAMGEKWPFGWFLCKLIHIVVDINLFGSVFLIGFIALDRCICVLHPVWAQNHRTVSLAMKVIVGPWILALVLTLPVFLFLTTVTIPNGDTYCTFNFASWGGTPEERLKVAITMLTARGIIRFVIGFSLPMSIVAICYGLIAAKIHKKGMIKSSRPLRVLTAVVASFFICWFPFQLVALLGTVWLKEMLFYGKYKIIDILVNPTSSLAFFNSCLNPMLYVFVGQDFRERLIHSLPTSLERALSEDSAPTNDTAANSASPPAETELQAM

[2] = Permeability of the compound at pH 5.5 by PAMPA assay; format: ADME; settings: read-out: permeability
[3] = Protein binding in human assessed as free fraction; format: ADME
[4] = AUC (0 to infinity) in C57BL6 mouse at 3 mg/kg, po and measured upto 24 hrs by LC-MS/MS analysis; format: ADME, organism-based; design: dose 3 mg/kg, time < 24 hrs, route po; settings: in vivo
Peritoneal macrophage = assay: Induction of phagocytosis in mouse peritoneal macrophages assessed as increase in FITC signal preincubated with compound for 15 mins followed by zymosan addition and measured after 1 hr by Trypan Blue based FITC analysis

| SMILES | EC50 [1] | further results |
| --- | --- | --- |
| COc1cc(F)c([C@@H]2CNC(=O)[C@H]2c2nc3cc(Cl)ccc3[nH]2)c(F)c1 | 110 nM |  |
| COc1cc(F)c([C@@H]2CNC(=O)[C@H]2c2nc3cc(Cl)cnc3[nH]2)c(F)c1 | 40 nM |  |
| COc1cc(F)c([C@@H]2CNC(=O)[C@H]2Nc2nnc(-c3ccccc3)o2)c(F)c1 | 250 nM |  |
| COc1cc(F)c([C@@H]2CNC(=O)[C@H]2Nc2nnc(-c3ccc(Cl)cc3)o2)c(F)c1 | 32 nM | Papp [2]: 97 ×10⁻⁶ cm/s; fraction unbound [3]: 0.015; AUC(0-inf) [4]: 8.4 µM·h |
| COc1cc(F)c([C@@H]2CNC(=O)[C@H]2Nc2cc(-c3ccc(Cl)cc3)on2)c(F)c1 |  | Papp [2]: 110 ×10⁻⁶ cm/s; fraction unbound [3]: 0.005; AUC(0-inf) [4]: 15 µM·h |
| COc1cc(F)c([C@@H]2CNC(=O)[C@H]2Nc2noc(-c3ccc(Cl)cc3)n2)c(F)c1 | 2500 nM |  |
| COc1cc(F)c([C@@H]2CNC(=O)[C@H]2Nc2nc(-c3ccc(Cl)cc3)no2)c(F)c1 | 3500 nM |  |
| COc1cc(F)c([C@@H]2CNC(=O)[C@H]2Nc2cc(-c3ccc(Cl)cc3)no2)c(F)c1 | 2200 nM |  |
| COc1cc(F)c([C@@H]2CNC(=O)[C@H]2Nc2ncc(-c3ccc(Cl)cc3)o2)c(F)c1 | 250 nM |  |
| COc1cc(F)c([C@@H]2CNC(=O)[C@H]2Nc2nnc(-c3ccc(Cl)cc3)s2)c(F)c1 | 37 nM |  |
| COc1ccc([C@@H]2CNC(=O)[C@H]2Nc2nnc(-c3ccc(Cl)cc3)o2)cc1 | 160 nM |  |
| COc1cc(F)c([C@@H]2CNC(=O)[C@H]2c2nc3nc(Cl)ccc3[nH]2)c(F)c1 | 2300 nM |  |
| COc1cc(F)c([C@@H]2CNC(=O)[C@H]2Nc2nnc(-c3cccc(Cl)c3)o2)c(F)c1 | > 10000 nM |  |
| COc1cc(F)c([C@@H]2CNC(=O)[C@H]2c2nc3ccccc3[nH]2)c(F)c1 | 680 nM |  |
| COc1cc(F)c([C@@H]2CNC(=O)[C@H]2NC(=O)Nc2ccccc2)c(F)c1 [BMS-986235] |  | Papp [2]: 44 ×10⁻⁶ cm/s; EC50 (Peritoneal macrophage): < 1 nM; fraction unbound [3]: 0.127; AUC(0-inf) [4]: 5.6 µM·h |

The next lines start with results.

| EC50 [1] | SMILES | further results |
| --- | --- | --- |
| > 10000 nM | COc1cc(F)c([C@@H]2CNC(=O)[C@H]2Nc2cc(-c3ccc(Cl)cc3)[nH]n2)c(F)c1 |  |
| > 10000 nM | COc1cc(F)c([C@@H]2CNC(=O)[C@H]2Nc2nnc(-c3ccccc3Cl)o2)c(F)c1 |  |
| 40 nM | COc1ccc([C@@H]2CNC(=O)[C@H]2Nc2nnc(-c3ccc(Cl)cc3)o2)c(F)c1 |  |
| 1300 nM | COc1cc(F)c([C@@H]2CNC(=O)[C@H]2Nc2nc3ccccc3[nH]2)c(F)c1 |  |
| > 10000 nM | COc1cc(F)c([C@@H]2CNC(=O)[C@H]2Nc2cc(-c3ccc(Cl)cc3)n(C)n2)c(F)c1 |  |
| > 10000 nM | COc1cc(F)c([C@@H]2CNC(=O)[C@H]2c2nc3c(Cl)cccc3[nH]2)c(F)c1 |  |
| 53 nM | COc1cc(F)c([C@@H]2CNC(=O)[C@H]2Nc2nnc(-c3ccc(OC(F)(F)F)cc3)o2)c(F)c1 |  |
| 840 nM | COc1cc(F)c([C@@H]2CNC(=O)[C@H]2Nc2nnc(-c3ccc(Cl)cc3F)o2)c(F)c1 |  |
| 3700 nM | COc1ccc(-c2nnc(N[C@@H]3C(=O)NC[C@H]3c3c(F)cc(OC)cc3F)o2)cc1 |  |
| > 5000 nM | COc1cc(F)c([C@@H]2CNC(=O)[C@H]2c2nc3cc(OC)ccc3[nH]2)c(F)c1 |  |
